Measured values taken from patent US8231887B2, “Pesticidal compositions” (BASF Corporation, priority 2008, dated 2012).
Several values for one entry are separate records, joined by “and”; a condition that tells them apart may be missing. Equal entries are not always repeated.

System: cockroaches
Experiment: Topical toxicity test of various compounds and/or PD23 mineral oil, dead at 24 h (Example 12)
Format: in vivo, Blattella germanica
Conditions: for Proportion dead at 24 h: calculated proportion; for increase in mortality when combined with PD23 mineral oil: result in words, compared to the other compounds tested
Procedure: Toxicity evaluations were performed on 7-14 day old adult male and female German cockroaches (SCJ Strain, S.C. Johnson & Son, Racine, Wis.). Approximately 12 cockroaches were transferred to individual 100×20 mm polystyrene Petri dishes and anesthetized with a 15-25 second exposure to carbon dioxide. The inside edge of each Petri dish was lightly coated with mineral oil plus petroleum jelly in a 1:3 (wt/wt) ratio to minimize escape. Anesthetized cockroaches were positioned with their ventral side up, and a 1 μl drop of the diluted test composition was applied to the area between the meso- and metathoracic legs using a Rainin L-10, 10 μl capacity pipette (Rainin Instrument, LLC, Oakland, Calif.). Five replications of 12 male cockroaches were done for each test composition. Separate tests were done using female cockroaches. Results were evaluated at 24 hours following treatment. Cockroaches were scored as either alive (dorsal side up, active movement when abdomen prodded with dissecting probe) or moribund/dead (dorsal side up and no movement when abdomen prodded or ventral side up and insect unable to right itself).

[1] = Table 17, composite data, listed as nitromethane (75-52-5) (0.80 mg)
[2] = compound alone, 0.25 mg, one replicate group per row

| Molecule | # dead at 24 h (Table 17, composite data) | Proportion dead at 24 h (Table 17, composite data) | also measured |
| --- | --- | --- | --- |
| C[N+](=O)[O-] [nitromethane (75-52-5) (0.70 mg), nitromethane] | 0 | – | Proportion dead at 24 h [1]: 0.179; # dead at 24 h [1]: 5; increase in mortality when combined with PD23 mineral oil: greatest increase in mortality |
| c1ccncc1 [Pyridine (110-86-1) (0.10 mg), Pyridine] | 1 | 0.032 | increase in mortality when combined with PD23 mineral oil: greatest increase in mortality |
| CCOCC [diethyl ether (60-29-7) (2.0 mg), diethyl ether] | 0 | 0.000 | – |
| CCC(C)=O [2-butanone] | 3 | 0.083 | – |
| COCOC [Dimethoxymethane] | – | 0.000 | pest or weed control at 2 mg (Blattella germanica, topical, 24 h, compound alone, 2.00 mg, read-out: Proportion dead at 24 hr): 0%; # dead at 24 h (compound alone, 2.00 mg): 0; Proportion dead at 24 hr (compound alone, 2.00 mg): 0.000 |
| ClC(Cl)Cl [Chloroform-anhydrous (67-66-3) (2.0 mg), Chloroform] | 1 | 0.050 | – |
| CCCCCC [Hexanes (110-54-3) (0.80 mg), Hexanes] | 1 | 0.100 | – |
| CC(=O)CC(C)C [Methyl isobutyl ketone] | 1 | 0.048 | – |
| COC(C)(C)C [Methyl t-butyl ether] | 5 | 0.227 | # dead at 24 h (compound alone, 2.00 mg): 2 and 3; Proportion dead at 24 hr (compound alone, 2.00 mg): 0.300 |
| CC(Cl)(Cl)Cl [Methyl chloroform] | – | – | # dead at 24 h (compound alone, 2.00 mg): 1; Proportion dead at 24 hr (compound alone, 2.00 mg): 0.091 and 0.100 |
| CC(=O)OC(C)C [Isopropyl acetate (108-21-4) (1.0 mg), Isopropyl acetate] | 3 | 0.150 | – |
| OCCOCCO [Di(ethylene) glycol (111-46-6) (0.80 mg), Di(ethylene) glycol] | 6 | – | – |
| Cc1ccccc1 [Toluene (108-88-3) (0.90 mg), Toluene] | 0 | 0.000 | – |
| CC(=O)c1ccccc1 [Acetophenone (98-86-2) (0.10 mg), Acetophenone] | 0 | – | increase in mortality when combined with PD23 mineral oil: greatest increase in mortality |
| Hexanes | – | – | # dead at 24 h (compound alone, 0.80 mg): 1; Proportion dead at 24 hr (compound alone, 0.80 mg): 0.100 |
| Cc1ccccc1 [Toluene] | – | – | # dead at 24 h (compound alone, 0.90 mg): 0; Proportion dead at 24 hr (compound alone, 0.90 mg): 0.000 |
| Diisopropyl biphenyl | 0 | 0.000 | – |
| CC(=O)OC(C)C [Isopropyl acetate] | – | – | # dead at 24 h (compound alone, 1.00 mg): 1 and 2; Proportion dead at 24 hr (compound alone, 1.00 mg): 0.200 |
| O=C1CCCO1 [gamma butyrolactone] | – | – | # dead at 24 h [2]: 3 and 5; Proportion dead at 24 hr [2]: 0.300 and 0.500 |
| CN1CCCC1=O [n-methyl pyrrolidone] | – | 0.100 | Proportion dead at 24 h (Table 17, composite data, listed as n-methyl pyrrolidone (872-50-4) (0.10 mg)): 0.500; # dead at 24 h (compound alone, 0.05 mg): 1; # dead at 24 h (compound alone, 0.10 mg): 5 |
| CC(=O)OCC(COC(C)=O)OC(C)=O [Triacetin (102-76-1) (2.0 mg), Triacetin] | 1 | 0.033 | increase in mortality when combined with PD23 mineral oil: greatest increase in mortality |
| ClCCl [Dichloromethane] | – | 0.000 | pest or weed control at 1.5 mg (Blattella germanica, topical, 24 h, read-out: Proportion dead at 24 hr): 0%; # dead at 24 h (compound alone, 1.50 mg): 0 |
| CCOCC [diethyl ether] | – | – | # dead at 24 h (compound alone, 2.00 mg): 0; Proportion dead at 24 hr (compound alone, 2.00 mg): 0.000 |
| O=C1CCCO1 [gamma butyrolactone (96-48-0) (0.25 mg), gamma butyrolactone] | 11 | 0.407 | increase in mortality when combined with PD23 mineral oil: greatest increase in mortality |
| CCOCCO [2-ethoxyethanol] | 1 | 0.033 | increase in mortality when combined with PD23 mineral oil: greatest increase in mortality |
| C1CCOC1 [Tetrahydrofuran (109-99-9) (0.80 mg), Tetrahydrofuran] | 3 | 0.300 | – |
